Earlier results in patent US20250145589A1, “PYRIDINE DERIVATIVE AND USE THEREOF” (SICHUAN HUIYU PHARMACEUTICAL CO., LTD., priority 2021, published 2025).

Tests used:
[1] = test system: pancreatic cancer MIA-Paca2 cell subcutaneous xenograft tumor; details: cited from earlier work
KRAS G12C mutation = details: at the cellular level; cited from earlier work

C=CC(=O)N1CCN(c2ncnc3c(F)c(-c4c(O)cccc4F)c(Cl)cc23)CC1 [ARS-1620]
tumor growth inhibition [1]: effectively inhibit tumor growth | cellular anti-proliferative activity (KRAS G12C mutation): nM-level
